Laboratory results: patent publication US8377984B2, “Substituted gamma lactams as therapeutic agents” (Allergan, Inc., priority 2008, dated 2013)

Experiments:
[1] = test system: normotensive dogs; assay: Ocular surface hyperemia (OSH) in normotensive dogs; assay type: in vivo; details: 0.003%
Protocol: In Vivo Data (S)-5-(3-(1-(4-hexylphenyl)-5-oxopyrrolidin-2-yl)propyl)thiophene-2-carboxylic acid 2-hydroxyethyl ester (3) was tested in normotensive dogs at 0.003%, dosing once daily for 5 days. The maximum intraocular pressure (IOP) decrease from baseline was 5.9 mmHg (36%) at 54 h; the maximum ocular surface hyperemia (OSH) score was 1.1 at 74 h. This compound was also tested in laser-induced hypertensive monkeys, using one single day dose. At 0.003%, the maximum IOP decrease from baseline was 17 mmHg (44%) at 6 h.
(S)-5-(3-(1-(4-hexylphenyl)-5-oxopyrrolidin-2-yl)propyl)thiophene-2-carboxylic acid (9) was tested in normotensive dogs at 0.003%, dosing once daily for 5 days. The maximum intraocular pressure (IOP) decrease from baseline was 4.7 mmHg (29%) at 6 h; the maximum ocular surface hyperemia (OSH) score was 1.9 at 76 h. This compound was also tested in laser-induced hypertensive monkeys, using one single day dose. At 0.003%, the maximum IOP decrease from baseline was 9 mmHg (23%) at 6 h.
(S)-5-(3-(1-(4-hexylphenyl)-5-oxopyrrolidin-2-yl)propyl)thiophene-2-carboxylic acid isopropyl ester was tested in normotensive dogs at 0.003%, dosing once daily for 4 days. The maximum intraocular pressure (IOP) decrease from baseline was 3.9 mmHg (24%) at 30 h; the maximum ocular surface hyperemia (OSH) score was 0.7 at 28 h. This compound was also tested in laser-induced hypertensive monkeys, using one single day dose. At 0.003%, the maximum IOP decrease from baseline was 12 mmHg (28%) at 6 h.

[2] = biological target: T1, EP2 (Homo sapiens, UniProt P43116); assay: EP2 flipr; assay type: cell-based
[3] = biological target: T1, EP2; assay: EP2 binding (Ki)
[4] = biological target: T1, EP2; assay: EP2 cAMP; assay type: cell-based
[5] = biological target: T2, hDP (Homo sapiens, UniProt Q13258); assay: Other receptors, hDP; assay type: cell-based
T2 sequence (Q13258 1-359): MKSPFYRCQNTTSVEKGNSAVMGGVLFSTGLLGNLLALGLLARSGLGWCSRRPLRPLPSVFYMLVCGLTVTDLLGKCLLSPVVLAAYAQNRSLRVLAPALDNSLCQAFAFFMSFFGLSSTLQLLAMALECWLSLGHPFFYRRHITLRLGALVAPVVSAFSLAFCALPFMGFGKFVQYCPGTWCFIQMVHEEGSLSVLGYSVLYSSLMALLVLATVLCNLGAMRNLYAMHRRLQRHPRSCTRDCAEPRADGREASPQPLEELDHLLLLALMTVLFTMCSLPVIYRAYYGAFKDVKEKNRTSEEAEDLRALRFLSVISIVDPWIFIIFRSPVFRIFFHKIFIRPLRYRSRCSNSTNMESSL

[6] = biological target: T3, EP4 (Homo sapiens, UniProt P35408); assay: EP4 binding (Ki)
[7] = biological target: T4, hEP3A (Homo sapiens, UniProt P43115); assay: Other receptors, hEP3A; assay type: cell-based
T4 sequence (P43115 1-390): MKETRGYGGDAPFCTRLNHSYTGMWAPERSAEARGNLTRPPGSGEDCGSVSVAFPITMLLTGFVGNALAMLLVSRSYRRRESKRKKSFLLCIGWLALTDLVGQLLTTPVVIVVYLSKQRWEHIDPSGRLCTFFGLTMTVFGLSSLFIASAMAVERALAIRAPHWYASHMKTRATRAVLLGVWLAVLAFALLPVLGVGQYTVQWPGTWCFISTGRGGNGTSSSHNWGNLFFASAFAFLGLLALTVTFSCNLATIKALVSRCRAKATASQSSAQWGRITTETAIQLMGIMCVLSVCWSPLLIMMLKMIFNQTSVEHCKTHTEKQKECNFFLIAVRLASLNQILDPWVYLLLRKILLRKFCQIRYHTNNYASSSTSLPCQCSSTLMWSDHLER

[8] = biological target: T3, EP4; assay: EP4 flipr; assay type: cell-based

T1 sequence (P43116 whole entry): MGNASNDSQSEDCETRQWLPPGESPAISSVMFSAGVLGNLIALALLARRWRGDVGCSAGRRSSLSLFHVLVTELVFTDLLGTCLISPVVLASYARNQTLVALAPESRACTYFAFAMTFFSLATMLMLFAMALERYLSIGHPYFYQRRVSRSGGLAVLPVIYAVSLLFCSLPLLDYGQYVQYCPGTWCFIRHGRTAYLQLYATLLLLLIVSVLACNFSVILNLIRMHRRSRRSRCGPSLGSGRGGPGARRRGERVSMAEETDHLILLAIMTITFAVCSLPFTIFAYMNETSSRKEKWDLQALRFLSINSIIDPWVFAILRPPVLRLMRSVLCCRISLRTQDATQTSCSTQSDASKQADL
T3 sequence (P35408 whole entry): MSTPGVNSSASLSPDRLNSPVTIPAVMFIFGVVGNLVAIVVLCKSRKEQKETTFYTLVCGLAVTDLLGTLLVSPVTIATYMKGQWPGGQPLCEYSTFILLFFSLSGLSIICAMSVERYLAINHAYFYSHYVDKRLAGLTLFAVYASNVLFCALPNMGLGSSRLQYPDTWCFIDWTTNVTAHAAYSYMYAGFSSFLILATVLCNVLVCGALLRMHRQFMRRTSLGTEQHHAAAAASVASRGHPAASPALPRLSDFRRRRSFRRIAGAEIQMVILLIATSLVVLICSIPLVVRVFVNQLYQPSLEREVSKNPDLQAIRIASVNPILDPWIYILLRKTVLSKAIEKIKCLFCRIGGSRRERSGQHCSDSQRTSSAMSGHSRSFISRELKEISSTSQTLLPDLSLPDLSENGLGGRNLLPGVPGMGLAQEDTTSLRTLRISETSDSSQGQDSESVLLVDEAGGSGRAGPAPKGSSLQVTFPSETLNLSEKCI

SMILES: CCCCCCc1ccc(N2C(=O)CC[C@@H]2CCCc2ccc(C(=O)OCCO)s2)cc1 [Compound 3, (S)-5-(3-(1-(4-hexylphenyl)-5-oxopyrrolidin-2-yl)propyl)thiophene-2-carboxylic acid 2-hydroxyethyl ester]
- maximum ocular surface hyperemia (OSH) score ([1]; once daily for 5 days, at 74 h): 1.1

SMILES: CCCCCCc1ccc(N2C(=O)CC[C@@H]2CCCc2ccc(C(=O)OC(C)C)s2)cc1 [(S)-5-(3-(1-(4-hexylphenyl)-5-oxopyrrolidin-2-yl)propyl)thiophene-2-carboxylic acid isopropyl ester]
- maximum ocular surface hyperemia (OSH) score ([1]; once daily for 4 days, at 28 h): 0.7

SMILES: CCCCCCc1ccc(N2C(=O)CC[C@@H]2CCCc2ccc(C(=O)O)s2)cc1 [Compound 9, (S)-5-(3-(1-(4-hexylphenyl)-5-oxopyrrolidin-2-yl)propyl)thiophene-2-carboxylic acid]
- EC50 [2]: 5 nM
- Ki [3]: 3 nM
- maximum ocular surface hyperemia (OSH) score ([1]; once daily for 5 days, at 76 h): 1.9
- EC50 [4]: 0.5 nM
- EC50 [5]: 389 nM
- Ki [6]: 2610 nM
- EC50 [7]: 1550 nM
- EC50 [8]: 11300 nM
